The values that follow come from patent US20140309171A1, “MARKER FOR BLOOD COAGULATION” (Universite Catholique De Louvain, priority 2011, published 2014).

“Also recorded” adds a separate entry of the source.

Common to all, as to type: cell-based
Test [1] deals with cofilin Ser3 phosphorylation. The test is described as follows: Western blot of cofilin Ser3 phosphorylation in human platelets. To be noted: 0.1 U/ml thrombin, 10 μM STO-609, 10 min after thrombin exposure. As to the method:
(§1) Washed human platelets (used in in vitro studies). Platelets were obtained from adult healthy volunteers in accordance with the Ethics Commission of our institution (Commission d'Ethique Biomédicale Hospitalo-Facultaire, Université catholique de Louvain). Whole blood was collected with butterfly needle 21G into Sodium Citrate 1:10 solution (S-monovette). Platelet-rich plasma (PRP) was obtained by 15 min centrifugation at 330 g. The platelets pellet was then washed in Tyrode modified buffer (135 mM NaCl, 12 mM NaHCO3, 1 mM Sodium Citrate, 2.9 mM KCl, 0.3 mM Na2HPO4, 1 mM MgCl2, 5 mM D-glucose, 10 mM Hepes, 0.35% bovine serum albumin (BSA), pH 7.4 at 37° C.) and resuspended to a density of 2.5 10^5 platelets/μl for the measurement of intracellular Ca^2+ or platelet aggregation. […]
(§2) Proteins were separated as described (Miranda et al. 2010. J Clin Invest 103(6): 879-887). […] Bound antibodies were detected by enhanced chemiluminescence (Thermofisher). […] Band intensities were quantified by scanning and processing image intensities with the program ImageJ (1.33 for Mac OS X). The quantification of immunoblots presented in results was obtained after normalization using the internal loading control.

Test [2] deals with AMPK Thr172 phosphorylation in human platelets. The test is described as follows: Western blot of AMPK Thr172 phosphorylation in human platelets. Particulars: 10 μM STO-609, thrombin-treated human platelets (not shown). As to the method:
Washed human platelets (used in in vitro studies). Platelets were obtained from adult healthy volunteers in accordance with the Ethics Commission of our institution (Commission d'Ethique Biomédicale Hospitalo-Facultaire, Université catholique de Louvain). Whole blood was collected with butterfly needle 21G into Sodium Citrate 1:10 solution (S-monovette). Platelet-rich plasma (PRP) was obtained by 15 min centrifugation at 330 g. The platelets pellet was then washed in Tyrode modified buffer (135 mM NaCl, 12 mM NaHCO3, 1 mM Sodium Citrate, 2.9 mM KCl, 0.3 mM Na2HPO4, 1 mM MgCl2, 5 mM D-glucose, 10 mM Hepes, 0.35% bovine serum albumin (BSA), pH 7.4 at 37° C.) and resuspended to a density of 2.5 10^5 platelets/μl for the measurement of intracellular Ca^2+ or platelet aggregation. For Western Blot analysis, PRP with eptifibatide 4 μg/ml (Integriline, GlaxoSmithKline) and ectonucleotidase apyrase (grade I) 0.5 U/ml was layered over a density barrier of iodixanol (Optiprep®) that allowed the erythrocytes and leucocytes to pellet during centrifugation at 350 g for 15 min. […] Bound antibodies were detected by enhanced chemiluminescence (Thermofisher). […] Band intensities were quantified by scanning and processing image intensities with the program ImageJ (1.33 for Mac OS X). The quantification of immunoblots presented in results was obtained after normalization using the internal loading control.

In test [3] the test system is P-selectin (CD62P) on human platelet surface. The test is described as follows: Flow cytometry, P-selectin (CD62P) exposure, α-granule release. To be noted: 0.025 U/ml thrombin, 10 μM STO-609. On the procedure:
Flow cytometric analysis was performed on a FACScan (Becton Dickinson). Washed human platelets (2·10^5 platelets/μl) were pre-incubated with DMSO/STO-609 for 2 min and then treated with or without thrombin (0.025 U/ml) in the presence of excessive amounts of FITC-conjugated monoclonal antibody (anti-CD62P (BD Biosciences) or PAC-1 (BD Biosciences)) at room temperature. The samples were then fixed at 4° C. for 30 min with 2% paraformaldehyde. The levels of P-selectin expression and PAC1 binding were expressed as the percentages of cells positive for anti-CD62P and PAC-1, respectively. The negative cut-off for each antibody was set using resting platelets that gave less than 5% of cells positive for binding of anti-CD62P or PAC-1. In addition, the effect of STO-609 on α-granule release was determined by measuring the exposure on platelet surface of P-selectin (CD62P).

Test [4] concerns myosin light chain (MLC) Ser 19 phosphorylation. Description: Western blot of MLC Ser19 phosphorylation in human platelets. To be noted: 0.1 U/ml thrombin, pre-incubation with STO-609. On the procedure:
as §1, §2
On the technique in general: A western blot detects proteins with antibodies after separation by electrophoresis.

In the case of `O=C(O)c1ccc2c3c1cccc3c(=O)n1c3ccccc3nc21` [STO-609], in test [1], the “thrombin-induced cofilin phosphorylation, effect of pre-incubation” value is reported as “significantly decreased; also recorded: prevents”. In addition, the “AMPK activation, as judged by phosphorylation of AMPK Thr172” value in test [2] is on record as “markedly reduced”. For the same compound, the “CD62P detection per platelet in response to thrombin (α-granule release)” value in test [3] is on record as “significantly inhibited; also recorded: prevents”. In addition, the “thrombin-induced MLC phosphorylation, effect of pre-incubation” value in test [4] is “decreased significantly; also recorded: prevents”.
